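These data come from cells grown in 96-well plates and exposed to compound for 48 hours at five concentrations. GI50 = concentration required for 50% inhibition of growth.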 Active and inactive are the calls of the source. Rule as the data show it: active = GI50 up to about 1.1 µM and inactive = higher. Bounds are passed on as bounds.

Test systems include NCI-H460; RXF 393; HOP-92; OVCAR-5; RPMI-8226; Malme-3M; TK-10; NCI-H226; SNB-19; U-251; OVCAR-8; Hs-578T; SK-MEL-28; SK-OV-3; SF-539; A498; PC-3; K562; MDA-N; M14.
Holding throughout (assay): NCI-60 cell line screen, 48 h

Turning to `O=c1cc(N2CCCC2)[nH]c(=O)n1-c1ccc(Cl)cc1`, the GI50 in the assay with NCI-H460, with RXF 393, in the assay with HOP-92, in the assay on OVCAR-5, in the assay with RPMI-8226 and in the assay on Malme-3M was > 100 µM (inactive) in each case. The GI50 with TK-10, in the assay with NCI-H226, with SNB-19, with U-251, with OVCAR-8 and in the assay on Hs-578T was > 100 µM (inactive) each time. For the same compound, the GI50 in the assay with SK-MEL-28, with SK-OV-3, in the assay with SF-539, in the assay with A498, in the assay on PC-3 and with K562 was > 100 µM (inactive) each time. Besides, the GI50 with MDA-N and in the assay on M14 was > 100 µM (inactive) each time.
For `O=C(O)c1cc(/N=C/c2ccccc2O)cc(C(=O)O)c1`, the GI50 with NCI-H460, in the assay on RXF 393, with HOP-92, with OVCAR-5, in the assay on RPMI-8226 and with Malme-3M was > 100 µM (inactive) in each case. The GI50 with TK-10, in the assay on NCI-H226, in the assay with SNB-19, in the assay with U-251, in the assay on OVCAR-8 and with Hs-578T was > 100 µM (inactive) throughout. The GI50 in the assay on SK-MEL-28, with SK-OV-3, in the assay on SF-539, with A498, with PC-3 and with K562 was > 100 µM (inactive) in each case. The GI50 in the assay on MDA-N and with M14 was > 100 µM (inactive) in each case.
For the compound `O=C(/C=C/c1ccccc1)CCN1CCCCC1`, the GI50 in the assay on NCI-H460 was 40.7 µM (inactive); in the assay with RXF 393, 24.2 µM (inactive); with HOP-92, > 100 µM (inactive); with OVCAR-5 it was > 100 µM (inactive); with RPMI-8226, 14.7 µM (inactive); in the assay on Malme-3M, > 100 µM (inactive). The GI50 with TK-10 was 51.3 µM (inactive); in the assay on NCI-H226, > 100 µM (inactive); in the assay with SNB-19 it was > 100 µM (inactive); in the assay with U-251 it was 23.6 µM (inactive); in the assay with OVCAR-8, 18.5 µM (inactive); in the assay on Hs-578T, 30.9 µM (inactive). Also, the GI50 in the assay with SK-MEL-28 was 24.2 µM (inactive); with SK-OV-3 it was 75 µM (inactive); in the assay with SF-539, 17.8 µM (inactive); with A498 it was 39.2 µM (inactive); in the assay on PC-3 it was 52.7 µM (inactive); in the assay with K562, 40.1 µM (inactive). Besides, the GI50 with MDA-N is 24.9 µM (inactive); in the assay on M14, 17.5 µM (inactive).
For `CSCC[C@H](NC(=O)[C@H](CC(C)C)NC(=O)[C@@H](Cc1ccccc1)NC(=O)CNC(=O)[C@@H](NC(=O)[C@H](C)NC(=O)[C@H](Cc1c[nH]c2ccccc12)NC(=O)[C@H](CCC(N)=O)NC(=O)[C@H](N)CC(N)=O)C(C)C)C(N)=O`, the GI50 in the assay with NCI-H460, with RXF 393, in the assay on HOP-92, with OVCAR-5, with RPMI-8226 and in the assay on Malme-3M was > 12.5 µM (inactive) in each case. For the same compound, the GI50 in the assay with TK-10, in the assay with NCI-H226, in the assay on SNB-19, with U-251, in the assay with OVCAR-8 and with Hs-578T was > 12.5 µM (inactive) in each case. In addition, the GI50 with SK-MEL-28, in the assay on SK-OV-3, in the assay on SF-539, in the assay with A498, in the assay on PC-3 and in the assay on K562 was > 12.5 µM (inactive) in each case. Moreover, the GI50 with MDA-N and in the assay with M14 was > 12.5 µM (inactive) throughout.
For the compound `Cn1cccc1-c1ccc(-c2ccc(CO)[se]2)[se]1`, the GI50 was 10.9 µM (inactive) in the assay with NCI-H460; 5.66 µM (inactive) with RXF 393; > 100 µM (inactive) in the assay on HOP-92; 53.5 µM (inactive) in the assay on OVCAR-5; 7.98 µM (inactive) with RPMI-8226; 66.1 µM (inactive) in the assay on Malme-3M. Also, the GI50 was 28.1 µM (inactive) in the assay with TK-10; 0.307 µM (active) in the assay with NCI-H226; 17.8 µM (inactive) with SNB-19; 9.53 µM (inactive) in the assay on U-251; 27.7 µM (inactive) with OVCAR-8; 22.7 µM (inactive) in the assay on Hs-578T. Moreover, the GI50 was 16.6 µM (inactive) in the assay on SK-MEL-28; 22.1 µM (inactive) in the assay on SK-OV-3; 11.5 µM (inactive) in the assay with SF-539; 1.77 µM (inactive) in the assay on A498; 24.5 µM (inactive) in the assay on PC-3; 0.986 µM (active) in the assay on K562. The values for the GI50 in the assay with MDA-N and in the assay on M14 were 8.53 µM (inactive) and 16.1 µM (inactive), respectively.
As for `COc1cc(/C=C2/CCCc3ccccc3C2=O)cc(OC)c1OC`, the GI50 with NCI-H460 is 20.8 µM (inactive); in the assay on RXF 393 it was 28.9 µM (inactive); in the assay on HOP-92 it was 14.8 µM (inactive); in the assay on OVCAR-5, 30.6 µM (inactive); in the assay on RPMI-8226, 2.63 µM (inactive); with Malme-3M it was 12.7 µM (inactive). For the same compound, the GI50 in the assay with TK-10 is 22.5 µM (inactive); in the assay with NCI-H226, 9.62 µM (inactive); in the assay with SNB-19 it was 32.5 µM (inactive); in the assay with U-251, 15.5 µM (inactive); with OVCAR-8 it was 13.7 µM (inactive); in the assay on Hs-578T, 18.2 µM (inactive). Moreover, the GI50 was 22 µM (inactive) in the assay with SK-MEL-28; 25.5 µM (inactive) in the assay with SK-OV-3; 18.6 µM (inactive) in the assay on SF-539; 7.89 µM (inactive) in the assay on A498; 10.1 µM (inactive) in the assay with PC-3; 2.65 µM (inactive) with K562. Also, the GI50 was 9.53 µM (inactive) in the assay on MDA-N and 18.7 µM (inactive) in the assay on M14.
As for `CC(C)=CCc1c2c(c3occ(-c4ccc(O)cc4)c(=O)c3c1O)CC(C(C)(C)O)O2` (stereo not given) [SENEGALENSIN], the GI50 is 12.5 µM (inactive) in the assay with NCI-H460; 13.6 µM (inactive) in the assay with RXF 393; 18 µM (inactive) in the assay with HOP-92; 19.1 µM (inactive) in the assay with OVCAR-5; 9.77 µM (inactive) with RPMI-8226; 21.3 µM (inactive) in the assay with Malme-3M. Besides, the GI50 is 16.5 µM (inactive) in the assay on TK-10; 20.3 µM (inactive) with NCI-H226; 16.4 µM (inactive) in the assay with SNB-19; 13.2 µM (inactive) with U-251; 17 µM (inactive) in the assay with OVCAR-8; 36.1 µM (inactive) in the assay with Hs-578T. In addition, the GI50 was 24.3 µM (inactive) in the assay with SK-MEL-28; 18.8 µM (inactive) in the assay on SK-OV-3; 20.1 µM (inactive) in the assay on SF-539; 16.1 µM (inactive) with A498; 13.8 µM (inactive) with PC-3; 17.2 µM (inactive) in the assay on K562. For the same compound, the GI50 in the assay on MDA-N was 21.4 µM (inactive); in the assay with M14 it was 14.5 µM (inactive).

These data come from ChEMBL document CHEMBL1201862, “PubChem BioAssay data set” (2004).
